Source: patent US20260324646A1, “BIOLOGICAL COMPOSITION FOR USE AGAINST PLANT FUNGICIDAL INFECTIONS” (UNIVERSITA' DEGLI STUDI DI MILANO, priority 2023, published 2026)

Key:
[1] = test system: Alternaria sp. and B. caroliniana; test: In vitro growth inhibition of phytopathogenic fungi on PDA (radial growth rate, 12-day effect); format: cell-based, Alternaria sp.; Botrytis caroliniana; details: for radial growth rate (Kr): PDA, 27±1° C.
Method: The phytopathogenic fungus Alternaria sp. was isolated in December 2021 from a vineyard in Oltrepo pavese (Santa Maria della Versa, Pavia, Italy).
In addition to Alternaria sp., experiments were also carried out on the fungus Botrytis caroliniana.
(§1) The fungal strains were maintained on potato dextrose agar (PDA, Merck kGaA, Darmstadt, Germany) at 4±1° C. and regularly subcultured. Plants of Solanum lycopersicum (cultivar Rio Grande) were sprouted in the greenhouse of the Fondazione dell'Università di Milano Filarete (Milan, Italy) under controlled conditions (T=18/25±1° C. (night/day), humidity ≥90%, photoperiod 16 h light:8 h dark). Determination of in vitro growth inhibition caused by mixtures of CA, BA, CaCl2 and the compositions of the invention was performed by measuring the diameter and calculating the radial growth rate (Kr, mm/h). The diameter growth of the fungi was determined daily, in six repetitions, using the Image J program (Copyright© 1993, 2018, Oracle).
The fungal cultures were carried out in Petri dishes (6 Well Cell Culture Plates, Sigma-Aldrich). The media treated with the compositions of the invention were inoculated with mycelial caps (diameter 7 mm) of growing active fungal strains (e.g., Alternaria sp. and B. caroliniana). The control cultures are carried out on PDA support and compared with those conducted on CA, BA, CaCl2 and on compositions according to the invention. The media was sterilized at 121° C. for 20 min. Incubation was carried out at 27±1° C. for 12 days in a static incubator (Memmert GmbH+Co. KG, Schwabach, Germany).
The results are shown in FIG. 1 (a) PDA control; b) PDA substrate containing citric acid).

S. lycopersicum plants = test: Phytotoxicity to treated plants in the in vivo experiments; parameters: species or system Solanum lycopersicum (cultivar Rio Grande); details: BA 3X (4.8 mM), sprayed 24 hours after infection
Method: as §1
S. lycopersicum plants were infected by […] the spores of the pathogenic fungus Alternaria sp. on the attached leaves and stem. Alternaria sp. spores were obtained by dropping 20 mL of sterile H2O into a culture of the fungus in a Petri dish. The inoculum was calculated after enumerating the spores under light microscope using a counting chamber device and the concentration was 3.1×10^6 spores/mL. 24 hours after infection, the attached leaves were sprayed with the compositions of the invention. The plants were infected and untreated, or treated with CA mixtures or with the compositions of the invention 24 hours after infection with Alternaria sp. […]

With `OB(O)O` [BA, Boric acid] as the compound, how does the “radial growth rate (Kr)” value ([1]; BA 1X (1.6 mM)) read?
The value was 0.115 mm/h.

And the “radial growth rate (Kr)” value ([1]; BA 3X (4.8 mM))?
The value was 0.051 mm/h.

And the “Effect (12 days from cultivation)” value ([1]; BA 5X (8.0 mM))?
Its value is “−”.

And the “radial growth rate (Kr)” value ([1]; BA 5X (8.0 mM))?
The value was 0.003 mm/h.

And the “Effect (8 days after infection): toxicity for the plant” value (S. lycopersicum plants)?
Its value is “Toxic for the plant”.

Which “radial growth rate (Kr)” value ([1]; CA 1X (0.01M)) does the source give for `O=C(O)CC(O)(CC(=O)O)C(=O)O` [CA, Citric acid] here?
Its value is 0.099 mm/h.

And the “radial growth rate (Kr)” value ([1]; CA 2X (0.02M))?
Its value is 0.028 mm/h.

And the “radial growth rate (Kr)” value ([1]; CA 3X (0.03M))?
Its value is 0.034 mm/h.

And the “radial growth rate (Kr)” value ([1]; CA 5X (0.05M))?
Its value is 0.012 mm/h.

And the “radial growth rate (Kr)” value ([1]; CA 7X (0.07M))?
The value was 0.020 mm/h.

What about the “Effect (12 days from cultivation)” value ([1]; CA 10X (0.1M)) of the same compound?
The value was “−”.

What about the “radial growth rate (Kr)” value ([1]; CA 10X (0.1M)) of the same compound?
The value was 0.000 mm/h.

And the “Effect (12 days from cultivation)” value ([1]; CA 105X (1M))?
Its value is “−”.

What about the “radial growth rate (Kr)” value ([1]; CA 105X (1M)) of the same compound?
The value was 0.000 mm/h.

How did the “Effect (12 days from cultivation)” value ([1]; CaCl2 1X (0.45 mM)) turn out when `[Ca+2].[Cl-].[Cl-]` [CaCl2, Calcium chloride] was run?
Its value is “+++++”.

And the “radial growth rate (Kr)” value ([1]; CaCl2 1X (0.45 mM))?
The value was 0.214 mm/h.

What about the “Effect (12 days from cultivation)” value ([1]; CaCl2 2X (0.90 mM)) of the same compound?
Its value is “+++++”.

What about the “radial growth rate (Kr)” value ([1]; CaCl2 2X (0.90 mM)) of the same compound?
Its value is 0.221 mm/h.

And the “radial growth rate (Kr)” value ([1]; CaCl2 3X (1.4 mM))?
Its value is 0.077 mm/h.
